Test results: patent US5985900A, “Metalloproteinase inhibitors, pharmaceutical compositions containing them and their pharmaceutical uses” (Agouron Pharmaceuticals, Inc., priority 1998, dated 1999)

Tests used:
Assay type in all cases: biochemical
[1] = target: human progelatinase A (GelA) (Homo sapiens, UniProt P08253); assay: In vitro MMP inhibition assay (hydrolysis of fluorogenic MCA peptide substrate), gelatinase A; conditions: Table 1; Ki,app; MCA peptide substrate 10 μM, 37° C., pH 7.5, 2% DMSO; read-out: Gel A
human progelatinase A (GelA), sequence (P08253 110-446 limits assumed): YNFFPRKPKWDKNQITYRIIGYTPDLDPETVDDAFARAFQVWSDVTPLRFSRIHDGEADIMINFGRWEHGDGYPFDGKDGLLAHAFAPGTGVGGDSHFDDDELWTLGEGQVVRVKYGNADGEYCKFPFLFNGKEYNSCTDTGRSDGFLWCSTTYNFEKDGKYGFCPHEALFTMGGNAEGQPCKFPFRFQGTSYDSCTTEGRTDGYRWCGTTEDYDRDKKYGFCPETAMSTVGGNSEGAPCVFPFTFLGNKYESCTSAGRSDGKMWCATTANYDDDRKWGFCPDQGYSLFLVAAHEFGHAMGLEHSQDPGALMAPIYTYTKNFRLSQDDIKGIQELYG
Procedure: The catalytic and fibronectin-like portion of human progelatinase A (GelA) was expressed as a fusion protein with ubiquitin in E. Coli. Assays were carried out on autocatalytically activated material.
(§1) Assays were performed in assay buffer (50 mM Tricine pH 7.5, 200 mM sodium chloride, 10 mM calcium chloride, 0.5 mM zinc acetate containing 2% dimethyl sulfoxide (DMSO)) once the substrate and inhibitor were diluted into it. Stock solutions of inhibitors were prepared in 100% DMSO. Stock solutions of the substrate were prepared in 100% DMSO at a concentration of 6 mM.
(§2) The assay method was based on the hydrolysis of MCA-Pro-Leu-Gly-Leu-DPA-Ala-Arg-NH2 (American Peptide Co.) at 37° C. (see Knight, C. G. et al., FEBS, 1992, 296, 263-266). The fluorescence changes were monitored with a Perkin-Elmer LS-50B fluorimeter using an excitation wavelength of 328 nm and an emission wavelength of 393 nm. The substrate concentration used in the assays was 10 μM. The inhibitor was diluted into the assays from a solution in 100% DMSO, and controls substituted an equal volume of DMSO so that the final DMSO concentration from inhibitor and substrate dilution in all assays was 2%. […] Proper determination of steady-state rates of substrate cleavage required assay lengths of 60 minutes to allow for complete equilibration of the enzyme-inhibitor complex.
(§3) The Km for the MCA peptide substrate with the matrix metalloproteinases is quite high and exceeds its solubility under assay conditions. Consequently, the apparent Ki (Ki,app) was determined to describe the strength of inhibition. However, in this case, Ki,app would be essentially equal to Ki since [S]<<Km. For the determination of Ki,app, the concentration of the inhibitor was varied at a constant and low concentration of substrate and the steady-state rates of fluorescence change determined. In most cases absorptive quench due to the presence of ligand was not observed. For slow-binding inhibitors, onset of inhibition curves were collected for at least 45 minutes so that equilibrium was established. Steady-state rates of fluorescence change were obtained by fitting a curve to an equation for a single exponential decay containing a linear phase. The fitted value of the linear phase was taken as the steady-state rate. The steady-state rates were fitted to the Michaelis equation describing competitive inhibition by non-linear methods. Data resulting from tight-binding inhibition was analyzed, and Ki,app determined by fitting the data to the tight-binding equation of Morrison (Biochem. Biophys. Acta, vol. 185, pp. 269-286 (1969)) by non-linear methods.
(§4) All Ki values are in nM units.

[2] = target: human stromelysin (Sln) (Homo sapiens, UniProt P08254); assay: In vitro MMP inhibition assay (hydrolysis of fluorogenic MCA peptide substrate), stromelysin; conditions: Table 1; Ki,app; MCA peptide substrate 10 μM, 37° C., pH 7.5, 2% DMSO; read-out: Sin Ki
human stromelysin (Sln), sequence (P08254 100-272 limits assumed): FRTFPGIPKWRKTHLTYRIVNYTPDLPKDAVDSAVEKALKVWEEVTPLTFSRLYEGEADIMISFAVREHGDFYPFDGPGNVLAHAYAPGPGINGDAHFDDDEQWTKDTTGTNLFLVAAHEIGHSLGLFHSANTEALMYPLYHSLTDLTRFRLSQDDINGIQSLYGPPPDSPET
Procedure: The catalytic domain of human stromelysin (Sln) was obtained by expression and purification of a C-terminally truncated prostromelysin-1 from E. coli host BL21 (see Marcy et al. Biochem., 1991, 30, 6476). The subsequent activation of the mature form (Sln) was completed with 2 mM APMA for 1 hour at 37° C., followed by separation using a sizing column.
as §1, §2, §3, §4

[3] = target: T1, Human matrilysin (Matr) (Homo sapiens, UniProt P09237); assay: In vitro MMP inhibition assay (hydrolysis of fluorogenic MCA peptide substrate), matrilysin; conditions: Table 1; Ki,app; MCA peptide substrate 10 μM, 37° C., pH 7.5, 2% DMSO; read-out: Matri Ki
T1 construct: catalytic domain liberated with APMA
T1 sequence (P09237 95-267): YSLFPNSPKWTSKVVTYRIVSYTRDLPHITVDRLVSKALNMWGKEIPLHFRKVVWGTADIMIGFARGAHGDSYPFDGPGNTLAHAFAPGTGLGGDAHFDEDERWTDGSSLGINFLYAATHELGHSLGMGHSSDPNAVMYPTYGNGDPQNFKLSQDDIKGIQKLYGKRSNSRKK
Procedure: Human matrilysin (Matr) was expressed in E. coli as a fusion protein with ubiquitin. After purification of the matrilysin/ubiquitin fusion from inclusion bodies, the catalytic domain was liberated by treatment with 2 mM APMA at 37° C. for 2 hours. Final purification was complete using copper chelate chromatography.
as §1, §2, §3, §4

[4] = target: T2, human collagenase-1 (HFC) (Homo sapiens, UniProt P03956); assay: In vitro MMP inhibition assay (hydrolysis of fluorogenic MCA peptide substrate), fibroblast collagenase-1; conditions: Table 1; Ki,app; MCA peptide substrate 10 μM, 37° C., pH 7.5, 2% DMSO
T2 sequence (P03956 100-269 limits assumed): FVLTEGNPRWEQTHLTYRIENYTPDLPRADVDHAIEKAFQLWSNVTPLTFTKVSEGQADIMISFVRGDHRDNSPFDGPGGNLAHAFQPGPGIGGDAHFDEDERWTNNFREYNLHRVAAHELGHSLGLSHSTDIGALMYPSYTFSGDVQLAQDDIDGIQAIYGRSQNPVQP
Procedure: The catalytic domain of human collagenase-1 was expressed as a fusion protein with ubiquitin in E. coli (see Gehring, E. R., J Biol. Chem., 1995, 270, 22507). After purification of the fusion protein, the fibroblast collagenase-1 catalytic domain (HFC) was released either by treatment with purified, active stromelysin-1 (1:50 wlw ratio), which generated nearly 100% N-terminal Phe1, or by autoprocessing the concentrated collagenase-1 fusion and then incubating at 37° C. for 1 hour. Final purification was completed using zinc chelate chromatography.
as §1, §2, §3, §4

[5] = target: T3, human collagenase-3 (Coll3) (Homo sapiens, UniProt P45452); assay: In vitro MMP inhibition assay (hydrolysis of fluorogenic MCA peptide substrate), collagenase-3; conditions: Table 1; Ki,app; MCA peptide substrate 10 μM, 37° C., pH 7.5, 2% DMSO
T3 construct: catalytic domain liberated with APMA
Procedure: The propeptide and catalytic domain of human collagenase-3 (Coll3) was expressed in E. coli as an N-terminal fusion protein with ubiquitin. After purification of the fusion from inclusion bodies, the catalytic domain was liberated by treatment with 2 mM APMA at room temperature overnight. Final purification was completed using copper chelate chromatography.
as §1, §2, §3, §4

SMILES | Ki [1] | Ki [2] | Ki [3] | Ki [4] | Ki [5]
CC(C)([C@@H](NS(=O)(=O)c1ccc(Oc2ccc(Br)cc2)cc1)C(=O)NO)[S+]([O-])Cc1ccccn1 (mixture of isomers) [Example 11, 2(S), S(R/S)--N-hydroxy-3-methyl-3-(pyrid-2-yl) methylsulfinyl-2-[(4-(4-bromophenoxy)benzenesulfonyl)amino]butanamide] | 0.049 nM | 1 nM | – | 24 nM | 0.028 nM
CC(C)(SCc1ccccn1)[C@@H](NS(=O)(=O)c1ccc(Oc2ccc(C#N)cc2)cc1)C(=O)O [Example 3h, N-[4-(4-Cyanophenoxy)benzenesulfonyl]--S--[(pyrid-2-yl)methyl]-D-penicillamine] | 73 nM | 8200 nM | – | – | 258 nM
CC(C)(C)[C@@H](NS(=O)(=O)c1ccc(Oc2ccc(F)cc2)cc1)C(=O)O [Example 3q, N-[4-(4-Fluorophenoxy)benzenesulfonyl]-D-tert-leucine] | 150 nM | 14000 nM | – | – | 1180 nM
Cc1cc(CSC(C)(C)[C@@H](NS(=O)(=O)c2ccc(Oc3ccc(F)cc3)cc2)C(=O)O)no1 [Example 3l, N-[4-(4-Fluorophenoxy)benzenesulfonyl]--S--[(5-methylisoxazol-3-yl)methyl]-D-penicillamine] | 35.3 nM | 5100 nM | – | – | 248 nM
CC(C)(SCc1ccccn1)[C@@H](NS(=O)(=O)c1ccc(Oc2ccc(I)cc2)cc1)C(=O)O [Example 3i, N-[4-(4-Iodophenoxy)benzenesulfonyl]--S--[(pyrid-2-yl)methyl]-D-penicillamine] | 3.3 nM | 1180 nM | – | – | 196 nM
CC(C)(SCC(=O)O)[C@@H](NS(=O)(=O)c1ccc(Oc2ccc(F)cc2)cc1)C(=O)NO [Example 12, 2(S)--N-hydroxy-3-methyl-3-(carboxymethyl)sulfanyl-2-[(4-(4-fluorophenoxy)benzenesulfonyl)amino]butanamide] | 0.53 nM | 5.7 nM | – | – | 0.27 nM
CC(C)(C)OC(=O)CSC(C)(C)[C@@H](NS(=O)(=O)c1ccc(Oc2ccc(F)cc2)cc1)C(=O)O [Example 3n, S--(t-Butoxycarbonyl)methyl--N--[4-(4-fluorophenoxy)benzenesulfonyl]-D-penicillamine] | 183 nM | 5700 nM | – | – | 574 nM
CC(C)(SCc1ccccc1)[C@@H](NS(=O)(=O)c1ccc(Oc2ccncc2)cc1)C(=O)O [Example 4a, S-Benzyl--N--[4-(pyrid-4-yl)oxybenzenesulfonyl]-D-penicillamine] | 193 nM | 7700 nM | – | – | 360 nM
CC(C)(C)OC(=O)CSC(C)(C)[C@@H](NS(=O)(=O)c1ccc(Oc2ccc(F)cc2)cc1)C(=O)NO [Example 9j, 2(S)--N-hydroxy-3-methyl-3-(t-butoxycarbonyl)methylsulfanyl-2-[(4-(4-fluorophenoxy)benzenesulfonyl)amino]butanamide] | 0.048 nM | 1.6 nM | – | 33 nM | 0.091 nM
CC(C)(C)[C@@H](NS(=O)(=O)c1ccc(Oc2ccc(Cl)cc2)cc1)C(=O)O [Example 3p, N-[4-(4-Chlorophenoxy)benzenesulfonyl]-D-tert-leucine] | 62 nM | 9500 nM | – | – | 203 nM
CC(C)(C)[C@@H](NS(=O)(=O)c1ccc(Oc2ccccn2)cc1)C(=O)O [Example 4d] | 11000 nM | 274000 nM | – | – | 27000 nM
CC(C)(SCc1ccncc1)[C@@H](NS(=O)(=O)c1ccc(Oc2ccc(F)cc2)cc1)C(=O)O [Example 3f, N-[4-(4-Fluorophenoxy)benzenesulfonyl]--S--[(pyrid-4-yl)methyl]-D-penicillamine] | 311 nM | 6300 nM | – | – | 829 nM
CC(C)(SCc1cccnc1)[C@@H](NS(=O)(=O)c1ccc(Oc2ccc(F)cc2)cc1)C(=O)O [Example 3e, N-[4-(4-Fluorophenoxy)benzenesulfonyl]--S--[(pyrid-3-yl)methyl]-D-penicillamine] | 517 nM | 6900 nM | – | – | 1100 nM
CC(C)(C)[C@@H](NS(=O)(=O)c1ccc(Oc2ccccc2)cc1)C(=O)O [Example 3r, N-[4-Phenoxybenzenesulfonyl]-D-tert-leucine] | 104 nM | 12700 nM | – | – | 616 nM

Further lines, results first:

Ki [1] | Ki [2] | Ki [3] | Ki [4] | Ki [5] | SMILES
0.091 nM | 4.2 nM | 376 nM | 53 nM | 0.057 nM | CC(C)(C)[C@H](NS(=O)(=O)c1ccc(Oc2ccccc2)cc1)C(=O)NO [Example 9k, 2(S)--N-hydroxy-3,3-dimethyl-2-[(4-phenoxybenzenesulfonyl)-amino]butanamide]
215 nM | 17000 nM | – | – | 696 nM | CSC(C)(C)[C@@H](NS(=O)(=O)c1ccc(Oc2ccc(Cl)cc2)cc1)C(=O)O [Example 6b, S-Methyl--N--[4-(4-chlorophenoxy)benzenesulfonyl]-D-penicillamine]
– | 0.26 nM | 7.9 nM | 4.1 nM | – | CC(C)(SCc1ccccn1)[C@@H](NS(=O)(=O)c1ccc(Oc2ccc(Br)cc2)cc1)C(=O)NO [Example 9e, 2(S)--N-hydroxy-3-methyl-3-(pyrid-2-yl)methylsulfanyl-2-[(4-(4-bromophenoxy)benzenesulfonyl)amino]butanamide]
0.031 nM | 0.84 nM | – | 17 nM | 0.057 nM | CC(C)(SCc1ccccn1)[C@@H](NS(=O)(=O)c1ccc(Oc2ccc(F)cc2)cc1)C(=O)NO [Example 9h, 2(S)--N-hydroxy-3-methyl-3-(pyrid-2-yl)methylsulfanyl-2-[(4-(4-fluorophenoxy)benzenesulfonyl)amino]butanamide]
351 nM | 4850 nM | – | – | 661 nM | CSC(C)(C)[C@@H](NS(=O)(=O)c1ccc(Oc2ccccc2)cc1)C(=O)O [Example 6a, S-Methyl--N--[4-(phenoxy)benzenesulfonyl]-D-penicillamine]
0.75 nM | 38 nM | – | – | 1.6 nM | Cc1cc(CSC(C)(C)[C@@H](NS(=O)(=O)c2ccc(Sc3ccncc3)cc2)C(=O)NO)no1 [Example 10b, 2(S)--N-hydroxy-3-methyl-3-(5-methylisoxazol-3-yl)methylsulfanyl-2-[(4-{(pyrid-4-yl)sulfanyl}benzenesulfonyl)amino]butanamide]
